Measured values taken from US11802111B2, “Cyclobutyl amide monoacylglycerol lipase modulators” (Janssen Pharmaceutica NV, priority 2020, dated 2023).

Biological target: human MGL from HeLa cells (Homo sapiens (Human), UniProt Q99685)
Assay: MGL in vitro activity assay ([glycerol-1,3-3H]-oleoyl glycerol hydrolysis, activated carbon filtration)
Assay type: biochemical
Conditions: 300 nM [Glycerol-1,3-3H]-oleoyl glycerol, one hour
Summary of the method: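 Endogenous human MGL in HeLa cells/homogenates incubated 1 h with test compounds and 300 nM [glycerol-1,3-3H]-oleoyl glycerol. Released 3H-glycerol passing an activated carbon filter counted as activity; screening at 10 μM compound, top IC50 concentration set empirically.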

human MGL from HeLa cells, sequence (Q99685 whole entry): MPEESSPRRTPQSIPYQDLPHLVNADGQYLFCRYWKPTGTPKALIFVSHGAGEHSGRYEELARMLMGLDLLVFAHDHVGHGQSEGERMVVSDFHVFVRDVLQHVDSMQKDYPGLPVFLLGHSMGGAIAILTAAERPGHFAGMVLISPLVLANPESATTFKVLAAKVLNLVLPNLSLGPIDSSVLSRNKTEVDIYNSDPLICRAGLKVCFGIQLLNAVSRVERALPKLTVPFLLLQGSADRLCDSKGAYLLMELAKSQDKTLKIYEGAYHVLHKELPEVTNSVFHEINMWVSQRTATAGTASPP

IC50	Structure (SMILES)
76 nM	COc1ccc(CC2CCC3(C2)CN(C(=O)[C@H]2C[C@@](C)(O)C2)C3)cc1 (mixture of isomers) [Example 205, (rac)-((1s,3s)-3-Hydroxy-3-methylcyclobutyl)(6-(4-methoxybenzyl)-2-azaspiro[3.4]octan-2-yl)methanone]
56 nM	CC(C)(C)n1ccc(C2CCC3(CC2)CN(C(=O)[C@H]2C[C@@](C)(O)C2)C3)n1 [Example 379, (7-(1-(tert-Butyl)-1H-pyrazol-3-yl)-2-azaspiro[3.5]nonan-2-yl)((1s,3s)-3-hydroxy-3-methylcyclobutyl)methanone]
0.22 nM	CCOc1nc(OC2CCC3(CC2)CN(C(=O)[C@H]2C[C@@](C)(O)C2)C3)ccc1C(F)(F)F [Example 459, (7-((6-Ethoxy-5-(trifluoromethyl)pyridin-2-yl)oxy)-2-azaspiro[3.5]nonan-2-yl)((1s,3s)-3-hydroxy-3-methylcyclobutyl)methanone]
3.3 nM	C[C@]1(O)C[C@@H](C(=O)N2CC3(CCC(Oc4ccc(C5CC5)c(F)c4)CC3)C2)C1 [Example 415, (7-(4-Cyclopropyl-3-fluorophenoxy)-2-azaspiro[3.5]nonan-2-yl)((1s,3s)-3-hydroxy-3-methylcyclobutyl)methanone]
29 nM	Cc1cc(F)ccc1C1CCC2(CC1)CN(C(=O)[C@H]1C[C@@](C)(O)C1)C2 [Example 357, (7-(4-Fluoro-2-methylphenyl)-2-azaspiro[3.5]nonan-2-yl)((1s,3s)-3-hydroxy-3-methylcyclobutyl)methanone]
38 nM	C[C@]1(O)C[C@@H](C(=O)N2CC3(CCC(Cc4cccc(OC(F)F)c4)CC3)C2)C1 [Example 160, (7-(3-(Difluoromethoxy)benzyl)-2-azaspiro[3.5]nonan-2-yl)((1s,3s)-3-hydroxy-3-methylcyclobutyl)methanone]
15 nM	Cc1ccc(C2CCC3(C2)CN(C(=O)[C@H]2C[C@@](C)(O)C2)C3)cc1Cl (mixture of isomers) [Example 71, (rac)-(6-(3-Chloro-4-methylphenyl)-2-azaspiro[3.4]octan-2-yl)((1s,3s)-3-hydroxy-3-methylcyclobutyl)methanone]
13 nM	Cn1ncc2cc(F)c(CC3CC4(C3)CN(C(=O)[C@H]3C[C@@](C)(O)C3)C4)cc21 [Example 304, (6-((5-Fluoro-1-methyl-1H-indazol-6-yl)methyl)-2-azaspiro[3.3]heptan-2-yl)((1s,3s)-3-hydroxy-3-methylcyclobutyl)methanone]
43 nM	Cn1ncc2ccc(CC3CC4(C3)CN(C(=O)[C@H]3C[C@@](C)(O)C3)C4)cc21 [Example 215, ((1s,3s)-3-Hydroxy-3-methylcyclobutyl)(6-((1-methyl-1H-indazol-6-yl)methyl)-2-azaspiro[3.3]heptan-2-yl)methanone]
17 nM	CCOc1ccc(C2CCC3(CC2)CN(C(=O)[C@H]2C[C@@](C)(O)C2)C3)cc1C(F)(F)F [Example 150, (7-(4-Ethoxy-3-(trifluoromethyl)phenyl)-2-azaspiro[3.5]nonan-2-yl)((1s,3s)-3-hydroxy-3-methylcyclobutyl)methanone]
31 nM	Cc1ccc(C2CC3(C2)CN(C(=O)[C@H]2C[C@@](C)(O)C2)C3)cc1C(F)(F)F [Example 6, ((1s,3s)-3-Hydroxy-3-methylcyclobutyl)(6-(4-methyl-3-(trifluoromethyl)phenyl)-2-azaspiro[3.3]heptan-2-yl)methanone]
48 nM	CC(C)c1cccc([C@@H]2CCC3(C2)CN(C(=O)[C@H]2C[C@@](C)(O)C2)C3C)c1 (relative stereo) [Example 318, ((1s,3*S)-3-Hydroxy-3-methylcyclobutyl)((6*R)-6-(3-isopropylphenyl)-1-methyl-2-azaspiro[3.4]octan-2-yl)methanone]
74 nM	Cc1ccc(OC2CCC3(C2)CN(C(=O)[C@H]2C[C@@](C)(O)C2)C3)cc1C(F)(F)F (mixture of isomers) [Example 256, (rac)-((1s,3s)-3-Hydroxy-3-methylcyclobutyl)(6-(4-methyl-3-(trifluoromethyl)phenoxy)-2-azaspiro[3.4]octan-2-yl)methanone]
